Test results reported in patent US20110015069A1, “Herbicidal Compositions Comprising Pyroxasulfone IV” (BASF SE, priority 2008, published 2011).
Read-outs that look alike come from different tables or passages of the source.

Experiments:
Viola arvensis (VIOAR) = test: greenhouse post-emergence herbicidal activity; format: in vivo; details: for inhibition at 94 g/ha / inhibition at 25 g/ha / inhibition at 100 g/ha: Viola arvensis, read-out: observed % activity; for observed activity in % destruction 20 days after treatment: 20 DAT (Table 3)
Source text: (§1) For the post-emergence treatment, the test plants were first grown to a height of 3 to 20 cm, depending on the plant habit, and only then treated. Here, the herbicidal compositions were suspended or emulsified in water as distribution medium and sprayed using finely distributing nozzles.
(§2) The respective herbicides A and/or safener were formulated as 10% by weight strength emulsion concentrate and introduced to the spray liquor with the amount of solvent system used for applying the active compound. In the examples, the solvent used was water. Herbicide B and/or safener were used as commercially available formulations and introduced to the spray liquor with the amount of solvent system used for applying the active compound. In the examples, the solvent used was water.
(§3) Metazachlor was used as a commercial aqueous suspension concentrate having an active ingredient concentration of 500 g/l.
(§4) The test period extended over 21 days. During this time, the plants were tended, and their response to the treatments with active compound was evaluated.
(§5) The evaluation for the damage caused by the chemical compositions was carried out using a scale from 0 to 100%, compared to the untreated control plants. Here, 0 means no damage and 100 means complete destruction of the plants.
(§6) The value E, which is to be expected if the activity of the individual compounds is just additive, was calculated using the method of S. R. Colby (1967) “Calculating synergistic and antagonistic responses of herbicide combinations”, Weeds 15, p. 22 ff.
(§7) where X=effect in percent using herbicide A at an application rate a; • Y=effect in percent using herbicide B at an application rate b; • E=expected effect (in %) of A+B at application rates a+b.
(§8) If the value observed in this manner is higher than the value E calculated according to Colby, a synergistic effect is present.

[1] = test system: Capsella bursa-pastoris (CAPBP); test: greenhouse post-emergence herbicidal activity; format: in vivo; details: 20 DAT
Source text: as §1, §2, §3, §4, §5, §6, §7, §8

[2] = test system: Matricaria inermis (MATIN); test: greenhouse post-emergence herbicidal activity; format: in vivo; details: 20 DAT
Source text: as §1, §2, §3, §4, §5, §6, §7, §8

Veronica persica (VERPE) = test: greenhouse post-emergence herbicidal activity; format: in vivo; details: 20 DAT
Source text: as §1, §2, §3, §4, §5, §6, §7, §8

[3] = test system: Capsella bursa-pastoris (CAPBP); test: greenhouse pre-emergence herbicidal activity; format: in vivo; details: read-out: observed % activity; for inhibition at 47 g/ha: metazachlor 47 g ai/ha; for inhibition at 94 g/ha: metazachlor 94 g ai/ha; for inhibition at 6.25 g/ha: pyroxasulfone 6.25 g ai/ha; for inhibition at 25 g/ha: pyroxasulfone 25 g ai/ha; for inhibition at 50 g/ha: pyroxasulfone 50 g ai/ha
Source text: (§9) For the pre-emergence treatment, directly after sowing the active compounds, which had been suspended or emulsified in water, were applied by means of finely distributed nozzles. The containers were irrigated gently to promote germination and growth and subsequently covered with transparent plastic hoods until plant had rooted. This cover caused uniform germination of the tests plants, unless this was adversely affected by active compounds.
as §2, §3, §4, §5, §6, §7, §8

[4] = test system: Matricaria inermis (MATIN); test: greenhouse pre-emergence herbicidal activity; format: in vivo; details: read-out: observed % activity; for inhibition at 47 g/ha: metazachlor 47 g ai/ha; for inhibition at 6.25 g/ha: pyroxasulfone 6.25 g ai/ha; for inhibition at 25 g/ha: pyroxasulfone 25 g ai/ha
Source text: as §9, §2, §3, §4, §5, §6, §7, §8

Bromus inermis (BROIN) = test: greenhouse pre-emergence herbicidal activity; format: in vivo; details: read-out: observed % activity; for inhibition at 47 g/ha: metazachlor 47 g ai/ha; for inhibition at 12.5 g/ha: pyroxasulfone 12.5 g ai/ha; for inhibition at 25 g/ha: pyroxasulfone 25 g ai/ha
Source text: as §9, §2, §3, §4, §5, §6, §7, §8

Galium aparine (GALAP) = test: greenhouse pre-emergence herbicidal activity; format: in vivo; details: read-out: observed % activity; for inhibition at 47 g/ha: metazachlor 47 g ai/ha; for inhibition at 50 g/ha: pyroxasulfone 50 g ai/ha
Source text: as §9, §2, §3, §4, §5, §6, §7, §8

Thlaspi arvense (THLAR) = test: greenhouse pre-emergence herbicidal activity; format: in vivo; details: read-out: observed % activity; for inhibition at 47 g/ha: metazachlor 47 g ai/ha; for inhibition at 94 g/ha: metazachlor 94 g ai/ha; for inhibition at 187 g/ha: metazachlor 187 g ai/ha; for inhibition at 6.25 g/ha: pyroxasulfone 6.25 g ai/ha; for inhibition at 12.5 g/ha: pyroxasulfone 12.5 g ai/ha; for inhibition at 25 g/ha: pyroxasulfone 25 g ai/ha; for inhibition at 50 g/ha: pyroxasulfone 50 g ai/ha
Source text: as §9, §2, §3, §4, §5, §6, §7, §8

[5] = known from Y. Yamaji et al., 2006; cited from earlier work

Compound: Cc1cccc(C)c1N(Cn1cccn1)C(=O)CCl [metazachlor]
- inhibition at 94 g/ha (Viola arvensis (VIOAR); 168 h, metazachlor 94 g ai/ha, 7 DAT): 30%
- inhibition at 94 g/ha (Viola arvensis (VIOAR); 480 h, metazachlor 94 g ai/ha, 20 DAT): 0%
- observed activity in % destruction 20 days after treatment (Viola arvensis (VIOAR); metazachlor 94 g ai/ha): 0%
- observed activity in % destruction 20 days after treatment ([1]; metazachlor 94 g ai/ha): 45%
- observed activity in % destruction 20 days after treatment ([2]; metazachlor 187 g ai/ha): 60%
- observed activity in % destruction 20 days after treatment ([2]; metazachlor 750 g ai/ha): 80%
- observed activity in % destruction 20 days after treatment (Veronica persica (VERPE); metazachlor 94 g ai/ha): 60%
- observed activity in % destruction 20 days after treatment (Veronica persica (VERPE); metazachlor 187 g ai/ha): 80%
- inhibition at 47 g/ha ([3]; 192 h, 8 DAT): 40%
- inhibition at 94 g/ha ([3]; 192 h, 8 DAT): 40%
- inhibition at 47 g/ha ([3]; 480 h, 20 DAT): 70%
- inhibition at 94 g/ha ([3]; 480 h, 20 DAT): 80%
- inhibition at 47 g/ha ([4]; 192 h, 8 DAT): 20%
- inhibition at 47 g/ha ([4]; 480 h, 20 DAT): 35%
- inhibition at 47 g/ha (Bromus inermis (BROIN); 192 h, 8 DAT): 35%
- inhibition at 47 g/ha (Bromus inermis (BROIN); 480 h, 20 DAT): 30%
- inhibition at 47 g/ha (Galium aparine (GALAP); 192 h, 8 DAT): 30%
- inhibition at 47 g/ha (Galium aparine (GALAP); 480 h, 20 DAT): 35%
- inhibition at 47 g/ha (Thlaspi arvense (THLAR); 192 h, 8 DAT): 20%
- inhibition at 94 g/ha (Thlaspi arvense (THLAR); 192 h, 8 DAT): 30%
- inhibition at 187 g/ha (Thlaspi arvense (THLAR); 192 h, 8 DAT): 45%
- inhibition at 47 g/ha (Thlaspi arvense (THLAR); 480 h, 20 DAT): 0%
- inhibition at 94 g/ha (Thlaspi arvense (THLAR); 480 h, 20 DAT): 0%
- inhibition at 187 g/ha (Thlaspi arvense (THLAR); 480 h, 20 DAT): 30%

Compound: Cn1nc(C(F)(F)F)c(CS(=O)(=O)C2=NOC(C)(C)C2)c1OC(F)F [pyroxasulfone, 3-[5-(difluoromethoxy)-1-methyl-3-(trifluoromethyl)pyrazol-4-ylmethylsulfonyl]-4,5-dihydro-5,5-dimethyl-1,2-oxazole]
- inhibition at 25 g/ha (Viola arvensis (VIOAR); 168 h, pyroxasulfone 25 g ai/ha, 7 DAT): 0%
- inhibition at 100 g/ha (Viola arvensis (VIOAR); 168 h, pyroxasulfone 100 g ai/ha, 7 DAT): 50%
- inhibition at 25 g/ha (Viola arvensis (VIOAR); 480 h, pyroxasulfone 25 g ai/ha, 20 DAT): 0%
- inhibition at 100 g/ha (Viola arvensis (VIOAR); 480 h, pyroxasulfone 100 g ai/ha, 20 DAT): 65%
- observed activity in % destruction 20 days after treatment (Viola arvensis (VIOAR); pyroxasulfone 25 g ai/ha): 0%
- observed activity in % destruction 20 days after treatment (Viola arvensis (VIOAR); pyroxasulfone 100 g ai/ha): 65%
- observed activity in % destruction 20 days after treatment ([1]; pyroxasulfone 25 g ai/ha): 35%
- observed activity in % destruction 20 days after treatment ([2]; pyroxasulfone 25 g ai/ha): 0%
- observed activity in % destruction 20 days after treatment ([2]; pyroxasulfone 50 g ai/ha): 0%
- observed activity in % destruction 20 days after treatment ([2]; pyroxasulfone 100 g ai/ha): 20%
- observed activity in % destruction 20 days after treatment (Veronica persica (VERPE); pyroxasulfone 100 g ai/ha): 90%
- inhibition at 6.25 g/ha ([3]; 192 h, 8 DAT): 40%
- inhibition at 25 g/ha ([3]; 192 h, 8 DAT): 60%
- inhibition at 50 g/ha ([3]; 192 h, 8 DAT): 60%
- inhibition at 6.25 g/ha ([3]; 480 h, 20 DAT): 40%
- inhibition at 25 g/ha ([3]; 480 h, 20 DAT): 95%
- inhibition at 50 g/ha ([3]; 480 h, 20 DAT): 95%
- inhibition at 6.25 g/ha ([4]; 192 h, 8 DAT): 0%
- inhibition at 25 g/ha ([4]; 192 h, 8 DAT): 20%
- inhibition at 6.25 g/ha ([4]; 480 h, 20 DAT): 20%
- inhibition at 25 g/ha ([4]; 480 h, 20 DAT): 50%
- inhibition at 12.5 g/ha (Bromus inermis (BROIN); 192 h, 8 DAT): 50%
- inhibition at 25 g/ha (Bromus inermis (BROIN); 192 h, 8 DAT): 50%
- inhibition at 12.5 g/ha (Bromus inermis (BROIN); 480 h, 20 DAT): 50%
- inhibition at 25 g/ha (Bromus inermis (BROIN); 480 h, 20 DAT): 60%
- inhibition at 50 g/ha (Galium aparine (GALAP); 192 h, 8 DAT): 60%
- inhibition at 50 g/ha (Galium aparine (GALAP); 480 h, 20 DAT): 80%
- inhibition at 6.25 g/ha (Thlaspi arvense (THLAR); 192 h, 8 DAT): 30%
- inhibition at 12.5 g/ha (Thlaspi arvense (THLAR); 192 h, 8 DAT): 40%
- inhibition at 25 g/ha (Thlaspi arvense (THLAR); 192 h, 8 DAT): 60%
- inhibition at 50 g/ha (Thlaspi arvense (THLAR); 192 h, 8 DAT): 60%
- inhibition at 6.25 g/ha (Thlaspi arvense (THLAR); 480 h, 20 DAT): 20%
- inhibition at 12.5 g/ha (Thlaspi arvense (THLAR); 480 h, 20 DAT): 30%
- inhibition at 25 g/ha (Thlaspi arvense (THLAR); 480 h, 20 DAT): 80%
- inhibition at 50 g/ha (Thlaspi arvense (THLAR); 480 h, 20 DAT): 80%
- post-emergence activity [5]: poor
